# Assay results as given in patent publication US20140031283A1, “ANTICANCER FUSION PROTEIN” (ADAMED SP. Z O.O., priority 2011, published 2014).
# Values joined by “and” are separate entries in the source; they are usually repeats but may differ in a detail not shown here. Equal entries are not always repeated. Where two headings read alike, the source gives them in different places.
# How the values were obtained:
# A549 = assay: MTT cytotoxicity test, A549 (human lung cancer); format: cell-based
# Source text: MTT assay is a colorimetric assay used to measure proliferation, viability and cytotoxicity of cells. It consists in decomposition of a yellow tetrazolium salt MTT (4,5-dimethyl-2-thiazolyl)-2,5-diphenyltetrazolium bromide) to the water-insoluble purple dye formazan by mitochondrial enzyme succinate-tetrazolium reductase 1. MTT reduction occurs only in living cells. Data analysis consists in determining IC50 concentration of the protein (in ng/ml), at which the 50% reduction in the number of cells occurs in the population treated compared to control cells. Results were analyzed using GraphPad Prism 5.0 software. The test was performed according to the literature descriptions (Cells, J E, (1998). Cell Biology, a Laboratory Handbook, second edition, Academic Press, San Diego; Yang, Y., Koh, L W, Tsai, J H., (2004); Involvement of viral and chemical factors with oral cancer in Taiwan, Jpn J Clin Oncol, 34 (4), 176-183). Cell culture medium was diluted to a defined density (10^4-10^5 cells per 100 μl). Then 100 μl of appropriately diluted cell suspension was applied to a 96-well plate in triplicates. Thus prepared cells were incubated for 24 h at 37° C. in 5% or 10% CO2, depending on the medium used, and then to the cells (in 100 μl of medium) further 100 μl of the medium containing various concentrations of tested proteins were added. In the case of combination hTRAIL114-281 and p21WAF effector protein, 100 μl of the medium containing mixture of hTRAIL114-281 and p21WAF effector protein in molar ratio 1:1 was added. After incubation of the cells with tested proteins over the period of next 72 hours, which is equivalent to 3-4 times of cell division, the medium with the test protein was added with […] of MTT working solution [5 mg/ml], and incubation was continued for 3 h at 37° C. in 5% CO2. Then the medium with MTT solution was removed, and formazan crystals were dissolved by adding 100 μl of DMSO. After stirring, the absorbance was measured at 570 nm (reference filter 690 nm). […]
# Colo 205 = assay: MTT cytotoxicity test, Colo 205 (human colorectal cancer); format: cell-based
# Source text: (§1) MTT assay is a colorimetric assay used to measure proliferation, viability and cytotoxicity of cells. It consists in decomposition of a yellow tetrazolium salt MTT (4,5-dimethyl-2-thiazolyl)-2,5-diphenyltetrazolium bromide) to the water-insoluble purple dye formazan by mitochondrial enzyme succinate-tetrazolium reductase 1. MTT reduction occurs only in living cells. Data analysis consists in determining IC50 concentration of the protein (in ng/ml), at which the 50% reduction in the number of cells occurs in the population treated compared to control cells. Results were analyzed using GraphPad Prism 5.0 software. The test was performed according to the literature descriptions (Cells, J E, (1998). Cell Biology, a Laboratory Handbook, second edition, Academic Press, San Diego; Yang, Y., Koh, L W, Tsai, J H., (2004); Involvement of viral and chemical factors with oral cancer in Taiwan, Jpn J Clin Oncol, 34 (4), 176-183). Cell culture medium was diluted to a defined density (10^4-10^5 cells per 100 μl). Then 100 μl of appropriately diluted cell suspension was applied to a 96-well plate in triplicates. […] After stirring, the absorbance was measured at 570 nm (reference filter 690 nm). […]
# HT-29 = assay: MTT cytotoxicity test, HT-29 (human colorectal cancer); format: cell-based; conditions: continuous incubation over 72 h, test MTT
# Source text: as §1
# DU-145 = assay: MTT cytotoxicity test, DU-145 (human prostate cancer); format: cell-based; conditions: continuous incubation over 72 h
# Source text: as §1
# MCF-7 = assay: MTT cytotoxicity test, MCF-7 (human breast cancer); format: cell-based; conditions: continuous incubation over 72 h
# Source text: as §1
# MDA-MB-231 = assay: MTT cytotoxicity test, MDA-MB-231 (human breast cancer); format: cell-based; conditions: continuous incubation over 72 h, test MTT
# Source text: as §1
# MDA-MB-435s = assay: MTT cytotoxicity test, MDA-MB-435s (human breast cancer); format: cell-based; conditions: continuous incubation over 72 h
# Source text: as §1
# UM-UC-3 = assay: MTT cytotoxicity test, UM-UC-3 (human bladder cancer); format: cell-based
# Source text: as §1
# SW780 = assay: MTT cytotoxicity test, SW780 (human bladder cancer); format: cell-based
# Source text: as §1
# SW620 = assay: MTT cytotoxicity test, SW620 (human colorectal cancer); format: cell-based; conditions: continuous incubation over 72 h, test MTT
# Source text: as §1
# BxPC-3 = assay: MTT cytotoxicity test, BxPC-3 (human pancreatic cancer); format: cell-based
# Source text: as §1
# SK-OV-3 = assay: MTT cytotoxicity test, SK-OV-3 (human ovarian cancer); format: cell-based; conditions: continuous incubation over 72 h
# Source text: as §1
# NIH: OVCAR-3 = assay: MTT cytotoxicity test, NIH: OVCAR-3 (human ovarian cancer); format: cell-based
# Source text: as §1
# HepG2 = assay: MTT cytotoxicity test, HepG2 (human liver hepatoma); format: cell-based; conditions: continuous incubation over 72 h, test MTT
# Source text: as §1
# ACHN = assay: MTT cytotoxicity test, ACHN (human kidney cancer); format: cell-based; conditions: continuous incubation over 72 h
# Source text: as §1
# CAKI 1 = assay: MTT cytotoxicity test, CAKI 1 (human kidney cancer); format: cell-based; conditions: continuous incubation over 72 h
# Source text: as §1
# CAKI 2 = assay: MTT cytotoxicity test, CAKI 2 (human kidney cancer); format: cell-based; conditions: continuous incubation over 72 h
# Source text: as §1
# HT144 = assay: MTT cytotoxicity test, HT144 (human melanoma cells); format: cell-based
# Source text: as §1
# MES-SA/Dx5 = assay: MTT cytotoxicity test, MES-SA/Dx5 (multidrug-resistant human uterine sarcoma); format: cell-based; conditions: Table 4, mean/SD part
# Source text: as §1
# SK-MES-1 = assay: MTT cytotoxicity test, SK-MES-1 (human lung cancer); format: cell-based; conditions: Table 4, mean/SD part
# Source text: as §1
# Panc-1 = assay: MTT cytotoxicity test, Panc-1 (human pancreatic cancer); format: cell-based; conditions: continuous incubation over 72 h, test MTT
# Source text: as §1
# Panc03.27 = assay: MTT cytotoxicity test, Panc03.27 (human pancreatic cancer); format: cell-based; conditions: continuous incubation over 72 h
# Source text: as §1
# PLC/PRF/5 = assay: MTT cytotoxicity test, PLC/PRF/5 (human liver hepatoma); format: cell-based; conditions: continuous incubation over 72 h, test MTT
# Source text: as §1
# LNCaP = assay: MTT cytotoxicity test, LNCaP (human prostate cancer); format: cell-based; conditions: Table 4, mean/SD part
# Source text: as §1
# SK-Hep-1 = assay: MTT cytotoxicity test, SK-Hep-1 (human liver hepatoma); format: cell-based; conditions: continuous incubation over 72 h
# Source text: as §1
# A498 = assay: MTT cytotoxicity test, A498 (human kidney cancer); format: cell-based; conditions: continuous incubation over 72 h
# Source text: as §1
# HT1080 = assay: MTT cytotoxicity test, HT1080 (human fibrosarcoma); format: cell-based; conditions: continuous incubation over 72 h
# Source text: as §1
# Jurkat A3 = assay: EZ4U cytotoxicity test, Jurkat A3 (human leukaemia); format: cell-based; conditions: continuous incubation over 72 h; heading prints test MTT
# Description: EZ4U (Biomedica) test was used for testing cytotoxic activity of the proteins in nonadherent cell lines. The test is a modification of the MTT method, wherein formazan formed in the reduction of tetrazolium salt is water-soluble. Cell viability study was carried out after continuous 72-hour incubation of the cells with protein (seven concentrations of protein, each in triplicates). On this basis IC5O values were determined (as an average of two independent experiments) using the GraphPad Prism 5 software. Control cells were incubated with the solvent only.
# The results of in vitro cytotoxicity tests are summarized as IC50 values (ng/ml), which corresponds to the protein concentration at which the cytotoxic effect of fusion proteins is observed at the level of 50% with respect to control cells treated only with solvent. Each experiment represents the average value of at least two independent experiments performed in triplicates. As a criterion of lack of activity of protein preparations the IC50 limit of 2000 ng/ml was adopted.
# [1] = continuous incubation over 72 h, test MTT
# Description for HCT-116: (§2) Data analysis consists in determining IC50 concentration of the protein (in ng/ml), at which the 50% reduction in the number of cells occurs in the population treated compared to control cells. Results were analyzed using GraphPad Prism 5.0 software. […] Cell culture medium was diluted to a defined density (10^4-10^5 cells per 100 μl). Then 100 μl of appropriately diluted cell suspension was applied to a 96-well plate in triplicates. Thus prepared cells were incubated for 24 h at 37° C. in 5% or 10% CO2, depending on the medium used, and then to the cells (in 100 μl of medium) further 100 μl of the medium containing various concentrations of tested proteins were added. […] After incubation of the cells with tested proteins over the period of next 72 hours, which is equivalent to 3-4 times of cell division, the medium with the test protein was added with 20 ml of MTT working solution [5 mg/ml], and incubation was continued for 3 h at 37° C. in 5% CO2. Then the medium with MTT solution was removed, and formazan crystals were dissolved by adding 100 μl of DMSO. After stirring, the absorbance was measured at 570 nm (reference filter 690 nm).
# Description for NCI-H460: as §2
compound,measurement,setting,value
CC[C@H](C)[C@H](NC(=O)[C@H](CC(C)C)NC(=O)[C@H](CCCNC(=N)N)NC(=O)[C@H](CCCNC(=N)N)NC(=O)[C@H](CCCCN)NC(=O)[C@H](CO)NC(=O)[C@H](Cc1c[nH]cn1)NC(=O)[C@H](Cc1ccc(O)cc1)NC(=O)[C@H](Cc1ccccc1)NC(=O)[C@H](CC(=O)O)NC(=O)[C@@H](NC(=O)[C@H](C)NC(=O)[C@H](CO)NC(=O)[C@@H](NC(=O)[C@H](CCC(N)=O)NC(=O)[C@H](CCCNC(=N)N)NC(=O)[C@H](CCCNC(=N)N)NC(=O)[C@@H](N)CCCCN)[C@@H](C)O)[C@@H](C)O)C(=O)N[C@@H](Cc1ccccc1)C(=O)N[C@@H](CO)C(=O)O [peptide derived from p21WAF],A549 IC50,A549; 72 h,>1000 µg/mL
same,NCI-H460 IC50,NCI-H460; 72 h,>1000 µg/mL
same,HCT116 IC50,HCT-116; 72 h,>1000 µg/mL
TRAIL 95-281,COLO205 IC50,Colo 205; [1],0.05902 µg/mL
same,HT29 IC50,HT-29,>2 µg/mL
same,DU145 IC50,DU-145,>2 µg/mL
same,MCF 7 IC50,MCF-7,>2 µg/mL
same,MDA-MB-231 IC50,MDA-MB-231,>2 µg/mL
same,MDA-MB-435s IC50,MDA-MB-435s,>2 µg/mL
same,UM-UC-3 IC50,UM-UC-3; [1],>2 µg/mL
same,SW780 IC50,SW780; [1],0.12 µg/mL
same,SW620 IC50,SW620,>2 µg/mL
same,BxPC3 IC50,BxPC-3; [1],0.06061 µg/mL
same,SK-OV-3 IC50,SK-OV-3,>2 µg/mL
same,OV-CAR-3 IC50,NIH: OVCAR-3; [1],0.963 µg/mL
same,HepG2 IC50,HepG2,>2 µg/mL
same,ACHN IC50,ACHN,>2 µg/mL
same,CAKI 1 IC50,CAKI 1,0.3953 µg/mL
same,CAKI 2 IC50,CAKI 2,>2 µg/mL
same,HT144 IC50,HT144; [1],0.0341 µg/mL
same,A549 IC50,A549; [1],>2 µg/mL
same,HCT116 IC50,HCT-116; [1],>2 µg/mL
rhTRAIL 95-281,COLO 205 mean (IC50),"Colo 205; Table 4, mean/SD part",0.0249 µg/mL
same,UM-UC-3 mean (IC50),"UM-UC-3; Table 4, mean/SD part",2.242 µg/mL and 2.241 µg/mL
same,SW780 mean (IC50),"SW780; Table 4, mean/SD part",0.12 µg/mL
same,BxPC3 mean (IC50),"BxPC-3; Table 4, mean/SD part",0.06471 µg/mL
same,OVCAR-3 mean (IC50),"NIH: OVCAR-3; Table 4, mean/SD part",0.963 µg/mL
same,HT 144 mean (IC50),"HT144; Table 4, mean/SD part",1.7335 µg/mL
same,MES-SA/Dx5 mean (IC50),MES-SA/Dx5,0.02915 µg/mL
same,SK-MES-1 mean (IC50),SK-MES-1,0.0336 µg/mL
same,Panc-1 IC50,Panc-1,>2 µg/mL
same,Panc03.27 IC50,Panc03.27,0.315 µg/mL
same,PLC/PRF/5 IC50,PLC/PRF/5,>2 µg/mL
same,LNCaP mean (IC50),LNCaP,2.0515 µg/mL
same,SK Hep-1 IC50,SK-Hep-1,>2 µg/mL
same,A498 IC50,A498,1.611 µg/mL
same,HT1080 IC50,HT1080,>2 µg/mL
same,JURKAT A3 IC50,Jurkat A3,>2 µg/mL
same,NCI-H460 mean (IC50),"NCI-H460; Table 4, mean/SD part",5.8885 µg/mL and 5.888 µg/mL
same,NCI-H460 IC50,NCI-H460; [1],0.4382 µg/mL
same,HCT116 mean (IC50),"HCT-116; Table 4, mean/SD part",7.558 µg/mL
